Measured values published in US7595327B2, “Beta-sulfonamide hydroxamic acid inhibitors of tace/matrix metalloproteinase” (priority 2005, dated 2009).

Tests used:
MMP-13 = MMP-13 (Homo sapiens, UniProt P45452); experiment: In-vitro fluorescence assay of MMP-13 activity; assay type: biochemical
Experimental: See Knight, C. […] […].
The method was essentially the same as for the determination of MMP-1 activity, described above, except that the final concentration of purified MMP in the assay was 0.5 nM, prepared by diluting with the assay buffer.

[1] = system: TNF-α secretion in Raw 264.7 cells; experiment: Cell-based assay for inhibition of TNF-α secretion in Raw cells; settings: Mus musculus, RAW264.7, LPS 100 ng/ml, 4 hr
Experimental: The basic measurement of the assay is the percentage of inhibition of TNF-α secretion and the IC50 determination by a fitting with the model-39 of LSW data analysis tool. […] Cells are split twice a week by scraping and 1 to 10 or 20 dilutions. For testing compounds, cells are cultured to confluence and are seeded the day before the experiment in 24 well culture dishes at 0.5 to 1 million/ml well. On the next morning, the medium from the overnight culture is replaced with the fresh growth medium. The compounds are added at various concentration at the 0.2% of final DMSO concentrations (10 μl of a 20% DMSO solution containing testing compounds is added to each well). The cells are pre-incubated with compounds for 1 hr. LPS (Sigma, L2262) is added to cells at a final concentration of 100 ng/ml (10 μl of a […] LPS solution freshly diluted from a 1 mg/ml LPS stock solution in PBS is added to each well) and cells are further incubated for 4 hr at 37° C. 1 ml of the supernatant was collected, cells are spun down and the supernatants are frozen at −80° C. until use. The TNF-α and other proinflammatory cytokines were detected by an ELISA assay according to the manufacturer's instructions (Biosource International, Inc., Camarillo, Calif. (For IL-1b measurement in Raw cells, one round of freeze and thaw of the cells was required).

[2] = system: LPS-induced TNF-α secretion in human whole blood; experiment: Human whole blood assay for LPS-induced TNF-α secretion; assay type: cell-based; settings: Homo sapiens, LPS 100 ng/ml, read-out: TNF Secretion HWB IC50
Experimental: procedure is essentially as described in Newton, R. C., et al., (2001) Ann Rheum […]32, incorporated by reference herein in its entirety. The basic measurement of the assay is the percentage of inhibition of TNF-α secretion and the IC50 determination by a […] model-39 of LSW data analysis tool. 350 μl of fresh human blood drawn from healthy volunteers were pre-incubated with compounds for one hour at the various concentrations at 37° C. with turning generally, the final DMSO concentrations should be kept below 0.2%. At the end of cubation, LPS (Sigma, L2262) was added to the blood at 100 ng/ml and the samples were further incubated for 4 hours or overnight at 37° C. with constant rotation. At the end of the incubation period, 650 μl of serum-free medium was added to the blood samples and the samples were centrifuged at 1500 rpm for 15 minutes. 500 μl of supernate was collected and frozen at -80° C. The TNF-α and other proinflammatory cytokines were detected by ELISA assay according to the manufacturer's instruction (Biosource International, Inc., Camarillo, Calif.).

recombinant human MMP-2 = target: T1, recombinant human MMP-2 (Homo sapiens, UniProt P08253); experiment: In-vitro fluorescence assay of MMP-2 activity; assay type: biochemical
T1 sequence (P08253 110-660): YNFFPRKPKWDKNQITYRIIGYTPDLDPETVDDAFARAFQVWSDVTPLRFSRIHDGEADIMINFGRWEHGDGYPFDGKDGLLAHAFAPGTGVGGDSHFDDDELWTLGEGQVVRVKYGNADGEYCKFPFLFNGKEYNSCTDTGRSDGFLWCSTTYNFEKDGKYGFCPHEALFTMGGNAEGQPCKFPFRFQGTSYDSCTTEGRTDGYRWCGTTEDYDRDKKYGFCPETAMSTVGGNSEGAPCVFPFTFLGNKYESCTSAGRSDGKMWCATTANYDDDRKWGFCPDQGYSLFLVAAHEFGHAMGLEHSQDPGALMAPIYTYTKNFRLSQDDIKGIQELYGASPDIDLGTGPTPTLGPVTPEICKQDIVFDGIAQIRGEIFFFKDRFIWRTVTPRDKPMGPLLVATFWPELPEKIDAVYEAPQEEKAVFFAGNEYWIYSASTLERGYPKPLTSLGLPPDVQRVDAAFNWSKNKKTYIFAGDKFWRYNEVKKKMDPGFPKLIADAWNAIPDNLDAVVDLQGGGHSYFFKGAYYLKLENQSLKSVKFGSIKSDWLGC

[3] = target: T2, TACE (catalytic domain of the recombinant TACE protein) (Homo sapiens, UniProt P78536); experiment: TACE FRET assay using TACE Cat; assay type: biochemical; settings: FRET, pro-TNF-α substrate peptide; read-out: TACE IC50
T2 construct: The catalytic domain of the recombinant TACE protein was expressed and purified; made in house
T2 sequence (P78536 223-474 limits assumed): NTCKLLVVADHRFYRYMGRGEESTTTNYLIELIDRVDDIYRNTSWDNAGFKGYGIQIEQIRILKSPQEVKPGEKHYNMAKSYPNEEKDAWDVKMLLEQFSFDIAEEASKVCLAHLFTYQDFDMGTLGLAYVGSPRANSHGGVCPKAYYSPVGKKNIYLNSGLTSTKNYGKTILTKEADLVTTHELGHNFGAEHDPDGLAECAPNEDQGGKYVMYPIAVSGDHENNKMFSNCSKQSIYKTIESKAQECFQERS
Experimental: The procedure is essentially as described in Jin, G. et al., Analytical Biochemistry (2002) 302, 269-275, incorporated by reference herein in its entirety. […] K is the IC50. Generally, n and B are floated, noting that n (hill slope) should be close to 1 and B (background offset) to 0.
Pro-TNF-α substrate peptide Abz-[…]-Dpa (AnaSpec, San Jose, Calif., WARC-1) was prepared as a 2 mM stock solution in the TACE assay buffer (50 mM Tris-HCI, pH 7.4, 25 mM NaCl, 4% Glycerol, 0.005% Brij 35). The catalytic domain of the recombinant TACE protein was expressed and purified. The TACE protein (1 ug/ml) was pretreated with the inhibitors at various concentrations for 10 min at room temperature. The reaction was initiated by the addition of the substrate peptide. The increase in fluorescence was monitored at an Excitation of 320 nm and an Emission of 420 nm over a period of 10 min. The initial rate (slope) of the reaction was determined using a fluorescence plate reader (Molecular Devices, Spectra Max Gemini XS).

| Compound | IC50 (MMP-13) [nM] | IC50 [1] [nM] | IC50 [2] [nM] | IC50 (recombinant human MMP-2) [nM] | IC50 [3] [nM] |
| --- | --- | --- | --- | --- | --- |
| Cc1cc(COc2ccc(S(=O)(=O)NC3CCN(CCO)CC3C(=O)NO)cc2)c2ccccc2n1 (mixture of isomers) [Example 32, 1-(2-Hydroxy-ethyl)-4-[4-(2-methyl-quinolin-4-ylmethoxy)-benzenesulfonylamino]-piperidine-3-carboxylic acid hydroxyamide] | > 10000 | 180 | 1900 | > 10000 | 3.2 |
| Cc1cc(COc2ccc(S(=O)(=O)N[C@]3(C)CCCC[C@@H]3C(=O)NO)cc2)c2ccccc2n1 (racemic) [Example 60, (1S,2R)-N-hydroxy-2-methyl-2-[({4-[(2-methylquinolin-4-yl)methoxy]phenyl}sulfonyl)amino]cyclohexanecarboxamide (racemic)] | > 16700 | 25 | 4900 | > 16700 | < 0.6 |
| Cc1cc(COc2ccc(S(=O)(=O)N[C@@H]3CCC[C@@H]3C(=O)NO)cc2)c2ccccc2n1 (relative stereo) [Example 11, cis-N-Hydroxy-2-[({4-[(2-methylquinolin-4-yl)methoxy]phenyl}sulfonyl)amino]cyclopentanecarboxamide] | > 16700 | 11 | 740 | > 16700 | 0.6 |
| Cc1cc(COc2ccc(S(=O)(=O)N[C@@H]3CCCC[C@H]3C(=O)NO)cc2)c2ccccc2n1 (relative stereo) [Example 14, trans-N-Hydroxy-2-[({4-[(2-methylquinolin-4-yl)methoxy]phenyl}sulfonyl)amino]cyclohexanecarboxamide] | > 16700 | 60 | 4500 | > 16700 | 1.8 |
| Cc1cc(COc2ccc(S(=O)(=O)N(C)[C@@H]3CC=CC[C@@H]3C(=O)NO)cc2)c2ccccc2n1 (relative stereo) [Example 15, cis-N-Hydroxy-6-[methyl({4-[(2-methylquinolin-4-yl)methoxy]phenyl}sulfonyl)amino]cyclohex-3-ene-1-carboxamide] | > 16700 | > 1000 | > 50000 | > 16700 | 2.6 |
| Cc1cc(COc2ccc(S(=O)(=O)N(C)[C@@H]3CCC[C@@H]3C(=O)NO)cc2)c2ccccc2n1 (relative stereo) [Example 16, cis-N-Hydroxy-2-[methyl({4-[(2-methylquinolin-4-yl)methoxy]phenyl}sulfonyl)amino]cyclopentanecarboxamide] | 13700 | 93 | 4780 | 9740 | < 0.6 |
| C#CCN1C[C@H](C(=O)NO)[C@H](NS(=O)(=O)c2ccc(OCc3cc(C)nc4ccccc34)cc2)C1 (relative stereo) [Example 18, cis-N-Hydroxy-4-[({4-[(2-methylquinolin-4-yl)methoxy]phenyl}sulfonyl)amino]-1-prop-2-yn-1-ylpyrrolidine-3-carboxamide] | > 10000 | 90 | 1000 | > 10000 | 0.7 |
| CC(=O)N1C[C@H](C(=O)NO)[C@H](NS(=O)(=O)c2ccc(OCc3cc(C)nc4ccccc34)cc2)C1 (relative stereo) [Example 19, cis-1-acetyl-N-Hydroxy-4-[({4-[(2-methylquinolin-4-yl)methoxy]phenyl}sulfonyl)amino]pyrrolidine-3-carboxamide] | ≥ 10000 | 20 | 200 | > 10000 | < 0.6 |
| Cc1cc(COc2ccc(S(=O)(=O)N(C)[C@@H]3CCOCC3C(=O)NO)cc2)c2ccccc2n1 (stereo in doubt) [Example 25, (3S,4R)-4-{Methyl-[4-(2-methyl-quinolin-4-ylmethoxy)-benzenesulfonyl]-amino}-tetrahydro-pyran-3-carboxylic acid hydroxyamide] | > 16700 | > 1000 | > 50000 | > 16700 | 7.9 |

More lines, now with the values ahead:

| IC50 (MMP-13) [nM] | IC50 [1] [nM] | IC50 [2] [nM] | IC50 (recombinant human MMP-2) [nM] | IC50 [3] [nM] | Compound |
| --- | --- | --- | --- | --- | --- |
| 6630 | 20 | 50 | > 10000 | 0.9 | CC(=O)N1CCC(NS(=O)(=O)c2ccc(OCc3cc(C)nc4ccccc34)cc2)C(C(=O)NO)C1 (mixture of isomers) [Example 31, 1-Acetyl-4-[4-(2-methyl-quinolin-4-ylmethoxy)-benzenesulfonylamino]-piperidine-3-carboxylic acid hydroxyamide] |
| > 16700 | 52 | 9600 | > 16700 | 1.1 | Cc1cc(COc2ccc(S(=O)(=O)N(C)[C@@H]3[C@@H]4CC[C@@H](C4)[C@@H]3C(=O)NO)cc2)c2ccccc2n1 (relative stereo) [Example 5, endo-N-Hydroxy-3-[methyl({4-[(2-methylquinolin-4-yl)methoxy]phenyl}sulfonyl)amino]bicyclo[2.2.1]heptane-2-carboxamide] |
| 4890 | 38 | 1300 | 8800 | < 0.6 | Cc1cc(COc2ccc(S(=O)(=O)N[C@@H]3CN(C(=O)OC(C)(C)C)C[C@@H]3C(=O)NO)cc2)c2ccccc2n1 (relative stereo) [Example 21, tert-Butyl cis-3-[(hydroxyamino)carbonyl]-4-[({4-[(2-methylquinolin-4-yl)methoxy]phenyl}sulfonyl)amino]pyrrolidine-1-carboxylate] |
| > 16700 | 17 | 230 | > 16700 | 0.8 | Cc1cc(COc2ccc(S(=O)(=O)N[C@@H]3CCOCC3C(=O)NO)cc2)c2ccccc2n1 (stereo in doubt) [Example 24, (3S,4R)-4-[4-(2-Methyl-quinolin-4-ylmethoxy)-benzenesulfonylamino]-tetrahydro-pyran-3-carboxylic acid hydroxyamide] |
| > 16700 | 929 | 41000 | > 16700 | 1.4 | Cc1cc(COc2ccc(S(=O)(=O)N(C)[C@H]3COC[C@H]3C(=O)NO)cc2)c2ccccc2n1 (stereo in doubt) [Example 27, (3S,4R)-4-{Methyl-[4-(2-methyl-quinolin-4-ylmethoxy)-benzenesulfonyl]-amino}-tetrahydro-furan-3-carboxylic acid hydroxyamide] |
